Where two headings read alike, the source gives them in different places.
What was measured:
[1] = test system: E. coli mutant strain expressing cytochrome bd-II as the sole terminal oxidase; test: Cell growth (OD600) of bd-II-only strain in presence of CO; format: cell-based, Escherichia coli; conditions: ~20% CO added at 60 min after start of growth in air, vs ~20% N2 control
Method: (§1) The CO and N2 gases were purchased from Linde (Danbury, CT, USA) and Air Liquide (Air Liquide Italia Spa, Milano, Italy), respectively. Other chemicals were purchased from Merck KGaA (Darmstadt, Germany). A stock solution of CO or N2 was prepared by equilibrating degassed water with the pure gas at 1 atm and room temperature, yielding 1 mM CO and 0.7 mM N2 in solution. E. coli respiratory mutant strains TBE025 (MG1655 ΔcydB nuoB appB::kan), TBE026 (MG1655 ΔcydB nuoB cyoB::kan), and TBE037 (MG1655 ΔappB nuoB cyoB::kan), which respectively express cytochrome bo3, cytochrome bd-II, or cytochrome bd-I as the sole terminal oxidase, were used. […] The gas percentage was assessed by taking into account the different O2 concentrations, present in equal volumes of LB equilibrated with air or flushed with CO/N2 for 30 s, and calculated according to the following equation: Gas % = ([O2] air equilibrated − [O2] gas flushed)/[O2] air equilibrated × 100. [O2] air equilibrated and [O2] gas flushed are the O2 concentration values measured in the degassed chamber of a high-resolution respirometer (Oxygraph-2k, Oroboros Instruments GmbH, Innsbruck, Austria) of non-fluxed and fluxed E. coli cultures with CO or N2, respectively. The growth of the E. coli cultures was then monitored via a standard method using optical density measurements in an Eppendorf BioSpectrometer basic at 600 nm every 30 min. […]

[2] = target: T1, cytochrome bo3 (bo3-only E. coli cells) (Escherichia coli, UniProt P0ABI8); test: O2 consumption (aerobic respiration) of bo3-only E. coli cell suspensions; format: cell-based; conditions: for IC50: read-out: apparent IC50
T1 construct: the oxidases were in vivo conditions, i.e., integrated into native bacterial membranes; endogenous in cells; host or cells: E. coli TBE025 (MG1655 ΔcydB nuoB appB::kan); whole cells (A3) or membranes isolated from them (A7)
T1 sequence (P0ABI8 whole entry): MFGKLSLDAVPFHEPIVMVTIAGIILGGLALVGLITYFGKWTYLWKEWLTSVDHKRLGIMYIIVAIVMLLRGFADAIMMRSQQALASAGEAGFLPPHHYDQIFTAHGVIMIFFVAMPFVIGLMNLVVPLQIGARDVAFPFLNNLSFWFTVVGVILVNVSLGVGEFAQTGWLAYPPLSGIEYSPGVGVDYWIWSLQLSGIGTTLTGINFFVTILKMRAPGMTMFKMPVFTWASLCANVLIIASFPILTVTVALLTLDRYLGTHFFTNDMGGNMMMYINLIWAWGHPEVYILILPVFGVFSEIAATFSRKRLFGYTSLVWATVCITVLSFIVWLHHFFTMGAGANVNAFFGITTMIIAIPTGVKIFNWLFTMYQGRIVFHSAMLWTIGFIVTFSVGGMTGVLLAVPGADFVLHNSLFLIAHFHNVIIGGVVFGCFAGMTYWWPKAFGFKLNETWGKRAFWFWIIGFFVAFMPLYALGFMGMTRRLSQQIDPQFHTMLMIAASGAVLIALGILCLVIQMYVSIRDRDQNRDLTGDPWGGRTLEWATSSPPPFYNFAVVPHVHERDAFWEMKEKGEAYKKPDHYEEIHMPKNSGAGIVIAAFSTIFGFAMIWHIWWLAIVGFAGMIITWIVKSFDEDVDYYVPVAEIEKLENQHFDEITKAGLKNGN
T1 sequence (P0ABJ1 25-315 partner): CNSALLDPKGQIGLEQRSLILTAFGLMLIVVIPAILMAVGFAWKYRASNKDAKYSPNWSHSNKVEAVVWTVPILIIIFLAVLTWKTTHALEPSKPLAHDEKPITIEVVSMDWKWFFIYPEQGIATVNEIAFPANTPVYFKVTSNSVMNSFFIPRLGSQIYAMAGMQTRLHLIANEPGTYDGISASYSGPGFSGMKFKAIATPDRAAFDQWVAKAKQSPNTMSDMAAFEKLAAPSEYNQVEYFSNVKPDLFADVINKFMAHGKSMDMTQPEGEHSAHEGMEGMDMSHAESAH
T1 sequence (P0ABJ3 whole entry partner): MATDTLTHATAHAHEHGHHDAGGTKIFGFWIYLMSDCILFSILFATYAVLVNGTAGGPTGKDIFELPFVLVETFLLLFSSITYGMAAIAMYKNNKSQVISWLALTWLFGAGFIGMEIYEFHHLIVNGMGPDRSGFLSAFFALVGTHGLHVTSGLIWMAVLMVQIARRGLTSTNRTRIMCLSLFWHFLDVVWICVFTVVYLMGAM
T1 sequence (P0ABJ6 whole entry partner): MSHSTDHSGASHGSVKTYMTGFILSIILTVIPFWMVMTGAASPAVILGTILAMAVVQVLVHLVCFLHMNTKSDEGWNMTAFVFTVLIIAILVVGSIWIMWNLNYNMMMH
Method: (§2) The CO and N2 gases were purchased from Linde (Danbury, CT, USA) and Air Liquide (Air Liquide Italia Spa, Milano, Italy), respectively. Other chemicals were purchased from Merck KGaA (Darmstadt, Germany). A stock solution of CO or N2 was prepared by equilibrating degassed water with the pure gas at 1 atm and room temperature, yielding 1 mM CO and 0.7 mM N2 in solution. E. coli respiratory mutant strains TBE025 (MG1655 ΔcydB nuoB appB::kan), TBE026 (MG1655 ΔcydB nuoB cyoB::kan), and TBE037 (MG1655 ΔappB nuoB cyoB::kan), which respectively express cytochrome bo3, cytochrome bd-II, or cytochrome bd-I as the sole terminal oxidase, were used. E. coli cultures were grown in Luria–Bertani (LB) medium supplemented with 30 μg/mL kanamycin, at 37 °C and 200 rpm. In the case of growth studies, after inoculation at an OD600 of 0.15 ± 0.03, the cells were grown in 50 mL rubber-stoppered flasks in 16 mL of air-equilibrated LB at 37 °C for 60 min; when OD600 reached 0.4 ± 0.08, they were bubbled for 30 s with either CO (pure gas at 1 atm and room temperature) or N2 (pure gas at 1 atm and room temperature) as a control to yield a final concentration of both gases of ~20%. The gas percentage was assessed by taking into account the different O2 concentrations, present in equal volumes of LB equilibrated with air or flushed with CO/N2 for 30 s, and calculated according to the following equation: Gas % = ([O2] air equilibrated − [O2] gas flushed)/[O2] air equilibrated × 100. [O2] air equilibrated and [O2] gas flushed are the O2 concentration values measured in the degassed chamber of a high-resolution respirometer (Oxygraph-2k, Oroboros Instruments GmbH, Innsbruck, Austria) of non-fluxed and fluxed E. coli cultures with CO or N2, respectively. The growth of the E. coli cultures was then monitored via a standard method using optical density measurements in an Eppendorf BioSpectrometer basic at 600 nm every 30 min. When the OD600 was above 1, cultures were diluted before reading.
(§3) Oxygraphic measurements were performed at 25 °C in 50 mM K/phosphate pH 7.0, using a high-resolution respirometer (Oxygraph-2k, Oroboros Instruments GmbH, Innsbruck, Austria) equipped with two 1.5-mL chambers. The O2 consumption of E. coli cells was followed with endogenous reductants. In the case of isolated membranes, O2 consumption was measured in the presence of 2.5 mM dithiothreitol (DTT) and 2.5 μM 2,3-dimethoxy-5-methyl-6-(3-methyl-2-butenyl)-1,4-benzoquinone (Q1), an artificial reducing couple specific for quinol oxidases. The catalytic O2-consuming activity was obtained by subtracting the non-enzymatic O2 consumption (Q1/DTT autoxidation in the absence of the membranes) from the O2 consumption rate measured after the addition of membranes.
(§4) UV–visible absorption spectra were recorded to estimate the amount of each terminal oxidase present in cell suspensions. For this purpose, an Agilent Cary 60 UV-Vis or a Varian Cary 300 Bio UV-Visible spectrophotometer was used.
(§5) Data analysis was carried out using software packages Origin v7.0 (OriginLab Corporation, Northampton, MA, USA) and GIM (Scientific Graphic Interactive Management System developed by A.L. Drachev in Lomonosov Moscow State University). The percentage inhibition of O2 consumption of cell suspensions (i%) was calculated using the equation i% = ((V0 − V0,i)/V0)·100, where V0 and V0,i are the initial rates in the absence and in the presence of the inhibitor (CO), respectively. The apparent IC50 values of cytochromes bd-II and bo3 for CO were estimated by plotting i% as a function of CO concentration added ([CO]0). The data were fitted to the standard hyperbolic equation i% = imax%·[CO]0/(IC50 + [CO]0) using a built-in approximation function (‘Hyperbola function’) in ‘Advanced Fitting tool’ in the Origin program. The imax% parameter is a theoretical maximum percent inhibition. […]

[3] = target: T2, cytochrome bo3 (bo3-only E. coli membranes) (Escherichia coli, UniProt P0ABI8); test: O2 reductase activity of isolated bo3-containing membranes; format: biochemical
T2 construct: the oxidases were in vivo conditions, i.e., integrated into native bacterial membranes; endogenous in cells; host or cells: E. coli TBE025 (MG1655 ΔcydB nuoB appB::kan); whole cells (A3) or membranes isolated from them (A7)
T2 sequence (P0ABI8 whole entry): as the sequence (P0ABI8 whole entry) above
T2 sequence (P0ABJ1 25-315 partner): as the sequence (P0ABJ1 25-315 partner) above
T2 sequence (P0ABJ3 whole entry partner): as the sequence (P0ABJ3 whole entry partner) above
T2 sequence (P0ABJ6 whole entry partner): as the sequence (P0ABJ6 whole entry partner) above
Method: (§6) To isolate membranes from E. coli respiratory mutants expressing only one terminal quinol oxidase (cytochrome bd-I or cytochrome bd-II or cytochrome bo3), cell cultures were grown in LB medium until an OD600 of about 2 was reached. The cells were then pelleted by centrifugation at 10,000 rpm for 10 min and washed twice in 20 mM TRIS pH 8.3 containing 0.5 mM EDTA and 5 mM MgSO4. The cells were resuspended in the same buffer containing 1 mg/mL lysozyme and incubated for two hours on ice. A spatula tip of DNAse and RNase was then added, and the cells were lysed by sonication. Cell debris was removed by centrifugation at 15,000 rpm for 10 min. Membrane fractions were collected and stored at −80 °C. The protein content was determined using the Bradford method, using the Bradford reagent (Sigma) with bovine serum albumin as standard.
(§7) Oxygraphic measurements were performed at 25 °C in 50 mM K/phosphate pH 7.0, using a high-resolution respirometer (Oxygraph-2k, Oroboros Instruments GmbH, Innsbruck, Austria) equipped with two 1.5-mL chambers. The O2 consumption of E. coli cells was followed with endogenous reductants. In the case of isolated membranes, O2 consumption was measured in the presence of 2.5 mM dithiothreitol (DTT) and 2.5 μM 2,3-dimethoxy-5-methyl-6-(3-methyl-2-butenyl)-1,4-benzoquinone (Q1), an artificial reducing couple specific for quinol oxidases. […]

[4] = test system: terminal oxidase operons cyoABCDE, cydABX, appCBX; design: method as in PMID 26907100; conditions: wild-type E. coli exposed to CO gas, cited from earlier work
[5] = target: T3, cytochrome bd-II (bd-II-only E. coli membranes) (Escherichia coli, UniProt P26459); test: O2 reductase activity of isolated bd-II-containing membranes; format: biochemical
T3 construct: the oxidases were in vivo conditions, i.e., integrated into native bacterial membranes; endogenous in cells; host or cells: E. coli TBE026 (MG1655 ΔcydB nuoB cyoB::kan); whole cells (A2) or membranes isolated from them (A6)
T3 sequence (P26459 whole entry): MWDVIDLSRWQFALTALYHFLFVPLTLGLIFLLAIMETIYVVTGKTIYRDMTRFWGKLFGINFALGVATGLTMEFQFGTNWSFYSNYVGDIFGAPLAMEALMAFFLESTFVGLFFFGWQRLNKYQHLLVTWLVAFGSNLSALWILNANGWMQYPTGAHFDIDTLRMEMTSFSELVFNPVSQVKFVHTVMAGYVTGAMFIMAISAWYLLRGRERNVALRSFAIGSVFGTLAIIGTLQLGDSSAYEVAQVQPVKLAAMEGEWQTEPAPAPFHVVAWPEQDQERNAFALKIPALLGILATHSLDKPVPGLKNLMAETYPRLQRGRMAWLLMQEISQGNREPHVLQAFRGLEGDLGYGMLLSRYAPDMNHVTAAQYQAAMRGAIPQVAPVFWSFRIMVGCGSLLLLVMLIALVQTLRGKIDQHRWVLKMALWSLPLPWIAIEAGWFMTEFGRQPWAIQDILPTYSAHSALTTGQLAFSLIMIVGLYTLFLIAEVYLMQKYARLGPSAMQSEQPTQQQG
T3 sequence (P26458 whole entry partner): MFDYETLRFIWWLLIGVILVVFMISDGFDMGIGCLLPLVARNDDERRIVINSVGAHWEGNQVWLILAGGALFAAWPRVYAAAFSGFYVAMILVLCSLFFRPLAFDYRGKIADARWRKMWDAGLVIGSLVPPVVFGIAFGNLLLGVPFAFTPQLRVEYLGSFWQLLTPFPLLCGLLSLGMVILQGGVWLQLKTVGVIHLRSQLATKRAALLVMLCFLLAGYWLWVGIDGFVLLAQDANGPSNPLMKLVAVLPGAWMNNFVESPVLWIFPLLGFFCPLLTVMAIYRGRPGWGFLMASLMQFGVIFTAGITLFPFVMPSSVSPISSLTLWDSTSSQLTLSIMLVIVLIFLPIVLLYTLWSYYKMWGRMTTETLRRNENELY
T3 sequence (P24244 whole entry partner): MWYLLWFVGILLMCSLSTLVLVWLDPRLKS
Method: as §6, §7

[6] = target: T4, cytochrome bd-II (bd-II-only E. coli cells) (Escherichia coli, UniProt P26459); test: O2 consumption (aerobic respiration) of bd-II-only E. coli cell suspensions; format: cell-based; conditions: for IC50: read-out: apparent IC50
T4 construct: the oxidases were in vivo conditions, i.e., integrated into native bacterial membranes; endogenous in cells; host or cells: E. coli TBE026 (MG1655 ΔcydB nuoB cyoB::kan); whole cells (A2) or membranes isolated from them (A6)
T4 sequence (P26459 whole entry): as the sequence (P26459 whole entry) above
T4 sequence (P26458 whole entry partner): as the sequence (P26458 whole entry partner) above
T4 sequence (P24244 whole entry partner): as the sequence (P24244 whole entry partner) above
Method: as §2, §3, §4, §5

[7] = test system: E. coli wild-type strain MG1655 cells; test: O2 consumption of wild-type E. coli cell suspensions at high and low OD; format: cell-based, Escherichia coli
[8] = test system: E. coli mutant strain expressing cytochrome bd-I as the sole terminal oxidase; test: Cell growth (OD600) of bd-I-only strain in presence of CO; format: cell-based, Escherichia coli; conditions: ~20% CO added at 60 min after start of growth in air, vs ~20% N2 control
Method: as §1

[9] = target: T5, cytochrome bd-I (bd-I-only E. coli cells) (Escherichia coli, UniProt P0ABJ9); test: O2 consumption (aerobic respiration) of bd-I-only E. coli cell suspensions; format: cell-based
T5 construct: the oxidases were in vivo conditions, i.e., integrated into native bacterial membranes; endogenous in cells; host or cells: E. coli TBE037 (MG1655 ΔappB nuoB cyoB::kan); whole cells (A1) or membranes isolated from them (A5)
T5 sequence (P0ABJ9 whole entry): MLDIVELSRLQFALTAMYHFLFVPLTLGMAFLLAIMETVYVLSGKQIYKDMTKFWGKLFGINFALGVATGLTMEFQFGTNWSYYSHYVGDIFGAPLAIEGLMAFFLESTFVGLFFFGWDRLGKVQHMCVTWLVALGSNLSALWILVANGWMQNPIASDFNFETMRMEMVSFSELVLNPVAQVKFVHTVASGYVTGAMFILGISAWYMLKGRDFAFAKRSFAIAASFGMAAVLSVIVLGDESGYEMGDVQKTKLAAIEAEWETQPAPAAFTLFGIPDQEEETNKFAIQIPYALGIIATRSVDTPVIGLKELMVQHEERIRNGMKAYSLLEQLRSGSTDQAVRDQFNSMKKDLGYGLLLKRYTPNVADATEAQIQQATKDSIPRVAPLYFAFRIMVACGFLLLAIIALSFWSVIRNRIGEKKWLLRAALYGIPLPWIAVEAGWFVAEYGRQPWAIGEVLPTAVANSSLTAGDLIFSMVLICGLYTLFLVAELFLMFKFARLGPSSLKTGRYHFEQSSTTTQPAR
T5 sequence (P0ABK2 whole entry partner): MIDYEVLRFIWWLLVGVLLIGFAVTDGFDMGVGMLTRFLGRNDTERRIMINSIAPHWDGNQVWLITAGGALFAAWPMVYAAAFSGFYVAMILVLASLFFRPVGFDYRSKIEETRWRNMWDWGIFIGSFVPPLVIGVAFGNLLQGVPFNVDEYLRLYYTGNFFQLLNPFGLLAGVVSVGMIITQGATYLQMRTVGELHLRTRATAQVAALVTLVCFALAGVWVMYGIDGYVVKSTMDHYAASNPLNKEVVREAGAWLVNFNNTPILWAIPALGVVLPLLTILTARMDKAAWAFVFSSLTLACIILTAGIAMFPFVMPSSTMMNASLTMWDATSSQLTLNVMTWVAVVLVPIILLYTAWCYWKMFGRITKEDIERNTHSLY
T5 sequence (P56100 whole entry partner): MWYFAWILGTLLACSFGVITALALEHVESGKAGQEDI
T5 sequence (A5A618 whole entry partner): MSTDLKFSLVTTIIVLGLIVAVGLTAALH
Method: as §2
as §3, with “The O2 consumption of E. coli cells was followed with endogenous reductants.” left out
UV–visible absorption spectra were recorded to estimate the amount of each terminal oxidase present in cell suspensions. […]

[10] = target: T1, cytochrome bo3 (bo3-only E. coli cells); design: method as in PMID 38188931; conditions: [O2] = 150 μM; cited from earlier work
cytochrome bd-I heme d2+ = conditions: cited from earlier work
[11] = test system: E. coli mutant strain expressing cytochrome bo3 as the sole terminal oxidase; test: Cell growth (OD600) of bo3-only strain in presence of CO; format: cell-based, Escherichia coli; conditions: ~20% CO added at 60 min after start of growth in air, vs ~20% N2 control
Method: as §1

[12] = target: T4, cytochrome bd-II (bd-II-only E. coli cells); design: method as in PMID 37515940; conditions: [O2] = 150 μM; cited from earlier work
[13] = target: T6, cytochrome bd-I (bd-I-only E. coli membranes) (Escherichia coli, UniProt P0ABJ9); test: O2 reductase activity of isolated bd-I-containing membranes; format: biochemical
T6 construct: the oxidases were in vivo conditions, i.e., integrated into native bacterial membranes; endogenous in cells; host or cells: E. coli TBE037 (MG1655 ΔappB nuoB cyoB::kan); whole cells (A1) or membranes isolated from them (A5)
T6 sequence (P0ABJ9 whole entry): as the sequence (P0ABJ9 whole entry) above
T6 sequence (P0ABK2 whole entry partner): as the sequence (P0ABK2 whole entry partner) above
T6 sequence (P56100 whole entry partner): as the sequence (P56100 whole entry partner) above
Method: as §6, §7

cytochrome bo3 = conditions: read-out: apparent Km(O2); cited from earlier work
cytochrome bd-II = conditions: read-out: apparent Km(O2); cited from earlier work
[14] = 196.3 μM CO added at [O2] = 50 μM
[15] = 196.3 μM CO added at [O2] = 100 μM
[16] = 196.3 μM CO added at [O2] = 200 μM

[C-]#[O+] [CO, Carbon monoxide]
effect on cell growth [1]: severely impaired
inhibition of O2 consumption ([2]; 96.3 μM CO added at [O2] = 100 μM, bo3-only cells): 44.3 ± 1.5%
maximum inhibition percentage of respiration [2, 14]: 85.6 ± 3.7%
maximum inhibition percentage of respiration [2, 15]: 65.3 ± 17.2%
maximum inhibition percentage of respiration [2, 16]: 39.7 ± 11.5%
IC50 ([2]; CO added at [O2] = 50 μM): 66.5 ± 10 µM
IC50 ([2]; CO added at [O2] = 100 μM): 131 ± 14 µM
IC50 ([2]; CO added at [O2] = 200 μM): 330 ± 19.6 µM
Ki ([2]; estimated from IC50 values at different [O2], assuming competitive inhibition, Km(O2) 6 µM): 8.4 ± 0.7 µM
CO inhibition of O2 reductase activity of membranes [3]: effectively inhibits
decrease in the expression of the cyoABCDE operon ([4]; aerobic conditions): 5- to 10 fold
increase in the expression of the cydABX operon ([4]; aerobic conditions): 4 fold
changes in the expression of the appCBX operon [4]: slight
CO inhibition of O2 reductase activity of membranes [5]: effectively inhibits
inhibition of O2 consumption ([6]; 96.3 μM CO added at [O2] = 100 μM, bd-II-only cells): 43.3 ± 7.6%
maximum inhibition percentage of respiration [6, 14]: 59.3 ± 11.5%
maximum inhibition percentage of respiration [6, 15]: 50.0 ± 3.6%
maximum inhibition percentage of respiration [6, 16]: 47.0 ± 6.0%
IC50 ([6]; CO added at [O2] = 50 μM): 88.6 ± 9.3 µM
IC50 ([6]; CO added at [O2] = 100 μM): 170 ± 15 µM
IC50 ([6]; CO added at [O2] = 200 μM): 230 ± 12 µM
Ki ([6]; estimated from IC50 values at different [O2], assuming competitive inhibition, Km(O2) 2 µM): 2.5 ± 0.2 µM
sensitivity of O2 consumption to CO ([7]; wild-type cells harvested at high OD600 (prevalent expression of a bd-type oxidase)): low
sensitivity of O2 consumption to CO ([7]; wild-type cells harvested at low OD600 (prevalent expression of cytochrome bo3)): high
effect on cell growth [8]: a minimal effect on cell growth was observed
inhibition of O2 consumption ([9]; 96.3 μM CO added at [O2] = 100 μM, bd-I-only cells): 11.6 ± 1.1%
maximum inhibition percentage of respiration [9, 14]: 39.6 ± 4.5%
maximum inhibition percentage of respiration [9, 15]: 18.0 ± 7.8%
maximum inhibition percentage of respiration [9, 16]: 9.7 ± 4.9%
IC50 [10]: 183 ± 13.5 µM
koff, dissociation of CO from the oxidase (cytochrome bd-I heme d2+; fully reduced form of the CO-bound enzyme): 6.0 ± 0.2 s⁻¹
effect on cell growth [11]: severely impaired
IC50 [12]: 187 ± 11.1 µM
CO inhibition of O2 reductase activity of membranes [13]: relatively resistant to inhibition by CO

nitric oxide [NO]
koff, NO dissociation from heme d^2+ (cytochrome bd-I heme d2+; ref 69): 0.133 s⁻¹
koff, NO dissociation from heme d^2+ (cytochrome bd-I heme d2+; ref 70): 0.163 s⁻¹

O=O [O2]
Km (cytochrome bo3): 6 µM
Km (cytochrome bd-II): 2 µM

Source: publication PMC10815991, “Membrane-Bound Redox Enzyme Cytochrome bd-I Promotes Carbon Monoxide-Resistant Escherichia coli Growth and Respiration” (International Journal of Molecular Sciences, 2024)
